Calls of active or inactive are those of the source. How the calls were made is not given here.

The target in the assay is CRF-binding protein / CRF-R2 receptor complex (human). In words: CRF-BP/CRF-R2 complex agonists, SAR follow-up, cell-based, 384-well (AID 651648). Particulars: cells expressing CRF-BP/CRF-R2 complex, agonist read-out.
`CCOc1ccccc1N(CC(=O)N1CCOCC1)S(=O)(=O)c1ccc(OC)cc1`: the EC50 was 5.85 µM.
On to `CCOc1ccccc1N(CC(=O)N1CCOCC1)S(=O)(=O)c1ccc(OC)cc1OC`, for which the EC50 was > 20 µM (inactive).
Take `CCOc1ccc(S(=O)(=O)N(CC(=O)N2CCOCC2)c2ccccc2)cc1`: the EC50 is > 20 µM (inactive).
As for `Cc1cc(=O)[nH]c(SCC(=O)Nc2ccc(Br)cc2)c1C#N`, the EC50 was > 20 µM (inactive).
Under `O=C(O)CCNc1nc(-c2ccccc2)c2cc(Br)ccc2n1` stands > 20 µM (inactive); under `COc1ccc(C)cc1N(CC(=O)N1CCOCC1)S(=O)(=O)c1ccccc1`, 10.7 µM.
As to `CC1(C)CSC(=NCc2ccccc2)N1`, the concentration for a half-maximal effect (EC50) is 7.83 µM.
Take `CCOC(=O)c1sc(NC(=O)c2cc(-c3ccccc3)nc3ccccc23)c(C#N)c1C`: the EC50 is > 20 µM (inactive).
In the case of `CCOc1ccccc1N(CC(=O)N1CCOCC1)S(=O)(=O)c1ccc(C)cc1`, the EC50 is 2.84 µM.
For the molecule `O=C(O)c1ccc(COc2ccccc2C=C2C(=O)c3ccccc3C2=O)cc1`, the EC50 is > 20 µM (inactive).
With `Oc1ccc2ccccc2c1CN1CCCCC1`, the EC50 was > 20 µM (inactive).
For `O=c1c(/C=C(\O)c2ccccc2)nc2ccccc2n1-c1ccccc1`, the EC50 is 8.1 µM.
For the molecule `CCOc1ccccc1N(CC(=O)N1CCOCC1)S(=O)(=O)c1ccccc1`, the half-maximal effective concentration (EC50) was 4.77 µM.
On to `CCOc1ccccc1N(CC(=O)N1CCOCC1)S(=O)(=O)c1cc(C(=O)OC)ccc1OC`, for which the EC50 is > 20 µM (inactive).
Regarding `CCOc1ccccc1N(CC(=O)N1CCOCC1)S(=O)(=O)c1ccc(F)cc1`, the EC50 is 3.78 µM.
For the molecule `CC(Oc1ccc(Br)cc1)C(=O)N1CCc2ccccc21` (centres undefined), the EC50 was > 20 µM (inactive).
Then `CC(=O)Nc1ccc(Sc2ncccc2C(=O)Nc2ccc(Br)cc2)cc1`, with 15.5 µM; and `O=C(Nc1cc(Cl)cc(Cl)c1)c1coc(=O)c(Br)c1`, with > 20 µM (inactive).
As for `Cc1[nH]n(-c2cccc(Cl)c2)c(=O)c1-c1ccc(Cl)cc1`, the EC50 was > 20 µM (inactive).
Then `CC(=O)Nc1ccc(Sc2ncccc2C(=O)Nc2ccc(F)cc2)cc1`, with > 20 µM (inactive).
`CCOc1ccc(N(CC(=O)N2CCOCC2)S(=O)(=O)c2ccc(OC)cc2)cc1`: the EC50 was > 20 µM (inactive).
Then `CCOc1ccccc1N(CC(=O)N1CCOCC1)S(=O)(=O)c1cccc(F)c1`, with 4.77 µM; and `CCCCCn1nc(-c2ccccc2)c2nc3ccccc3nc21`, with 3.16 µM; and `COc1ccc(C)cc1NC(=O)c1cccnc1Sc1ccc(NC(C)=O)cc1`, with > 20 µM (inactive).
For `CC(=O)Nc1ccc(Sc2ncccc2C(=O)Nc2ccc(F)cc2)cn1`, the half-maximal effective concentration (EC50) was 0.953 µM.
Regarding `CCOc1cccc(N(CC(=O)N2CCOCC2)S(=O)(=O)c2ccccc2)c1`, the EC50 was > 20 µM (inactive).
In the case of `O=C(Nc1ccc(Br)cc1Cl)c1ccc2c(=O)n3c(nc2c1)CCC3`, the EC50 was > 40 µM (inactive).
On to `CC(=O)Nc1ccc(Sc2ncccc2C(=O)Nc2cccc(OC(F)(F)F)c2)cc1`, for which the EC50 is > 20 µM (inactive).
Regarding `Cc1c(-n2cc(C(=O)c3ccccc3O)cc(C#N)c2=O)c(=O)n(-c2ccccc2)n1C`, the EC50 is > 20 µM (inactive).
`CCOc1ccccc1N(CC(=O)N1CCCC1)S(=O)(=O)c1ccc(SC)cc1`: the EC50 is > 20 µM (inactive).
Then `CCOc1ccccc1N(CC(=O)N1CCCCCC1)S(=O)(=O)c1ccc(SC)cc1`, with > 20 µM (inactive); and `COc1ccc(NC(=O)c2ccccc2Sc2ccc(NC(C)=O)nc2)cc1`, with > 20 µM (inactive); and `CCOc1ccccc1N(CC(=O)N1CCC(C)CC1)S(=O)(=O)c1ccc(SC)cc1`, with > 20 µM (inactive).
Then `COc1ccccc1N(CC(=O)N1CCOCC1)S(=O)(=O)c1ccccc1`, with > 20 µM (inactive); and `CC1(C(=O)NC(=S)NNC(=O)c2ccncc2)CCCCC1`, with 5.94 µM.
On to `O=C(Nc1ccc(SC(F)F)cc1)c1ccc2c(=O)n3c(nc2c1)CCC3`, for which the EC50 was > 20 µM (inactive).
`Cc1ccc2nc(NCCC(=O)O)nc(-c3ccccc3)c2c1`: the EC50 was > 20 µM (inactive).
Turning to `CCOc1ccccc1N(CC(=O)N1CCCCC1)S(=O)(=O)c1ccc(SC)cc1`, the half-maximal effective concentration (EC50) is 0.473 µM.
For the molecule `CCc1nc2c(c(=O)c3ccccc3n2C)c(=O)n1C1CCCCCC1`, the half-maximal effective concentration (EC50) was 4.68 µM.
For `COc1ccccc1N(CC(=O)N1CCOCC1)S(=O)(=O)c1ccc(C)cc1`, the EC50 was > 20 µM (inactive).
Then `O=C(COC(=O)[C@H](Cc1ccccc1)NC(=O)c1ccco1)NCc1ccccc1`, with 11.3 µM.
For the molecule `O=c1c(/C=C(\O)c2ccc(F)cc2)nc2ccccc2n1-c1ccccc1`, the concentration for a half-maximal effect (EC50) is 9.91 µM.
As for `CC(=O)Nc1ccc(Sc2ncccc2C(=O)Nc2ccccc2F)cc1`, the EC50 is > 20 µM (inactive).
Under `CCOc1cccc(N(CC(=O)N2CCOCC2)S(=O)(=O)c2ccc(OC)cc2)c1` stands > 20 µM (inactive); under `CCNC(=S)NNC(=O)c1cccn(Cc2ccc(Cl)cc2Cl)c1=O`, > 20 µM (inactive); under `CCOc1ccc(N(CC(=O)N2CCOCC2)S(=O)(=O)c2ccc(C)cc2)cc1`, > 20 µM (inactive).
As for `Cc1cc(NC(=O)COC(=O)[C@H](Cc2ccccc2)NC(=O)c2ccco2)no1`, the EC50 is 5.58 µM.
Then `CCOc1ccccc1N(CC(=O)N1CCOCC1)S(=O)(=O)c1cccc(OC)c1`, with 3.67 µM.
Regarding `COc1ccc(CCn2c(C(C)C)nc3c(c(=O)c4ccccc4n3C)c2=O)cc1`, the EC50 was > 20 µM (inactive).
`Cc1cc(S(=O)(=O)c2cc3ccc(O)c(C)c3oc2=O)ccc1F`: the EC50 is 2.29 µM.
As to `CCOc1ccccc1N(CC(=O)N1CCOCC1)S(=O)(=O)c1ccccc1C#N`, the EC50 is > 20 µM (inactive).
In the case of `O=C(NC(=O)c1ccccc1O)c1ccc(C(F)(F)F)cc1`, the EC50 is 13.6 µM.
In the case of `Cc1cccc(Oc2ccc(NC(=O)c3ccccc3C(=O)O)cc2)c1C`, the EC50 is > 20 µM (inactive).
Then `Cc1ccc(S(=O)(=O)NCC(=O)N(CC(=O)NCc2ccco2)Cc2ccccc2)cc1`, with 6.7 µM; and `CC(=O)Nc1ccc(Sc2ncccc2C(=O)Nc2cc(C)cc(C)c2)cn1`, with > 20 µM (inactive).
As to `CCCCCCc1cc2cc(C(=O)NCc3ccccc3)c(=N)oc2cc1O`, the EC50 is > 20 µM (inactive).
As to `CC(=O)Nc1ccc(Sc2ncccc2C(=O)Nc2ccc(C(F)(F)F)cc2)cc1`, the EC50 was > 20 µM (inactive).
Turning to `O=[N+]([O-])c1ccc(O)c(Nc2ncnc3ccc(Br)cc23)c1`, the EC50 is > 20 µM (inactive).
Then `Cc1ccccc1N(CC(=O)N1CCOCC1)S(=O)(=O)c1ccc(Cl)cc1`, with > 20 µM (inactive); and `CC(=O)Nc1ccc(Sc2ncccc2C(=O)Nc2ccc(OC(F)(F)F)cc2)cn1`, with 5.32 µM.
On to `CCOc1ccc(N(CC(=O)N2CCOCC2)S(=O)(=O)c2ccc(SC)cc2)cc1`, for which the EC50 was > 20 µM (inactive).
Turning to `CCc1ccccc1N(CC(=O)N1CCOCC1)S(=O)(=O)c1ccc(C)cc1`, the EC50 was > 20 µM (inactive).
As to `CC(=O)Nc1ccc(Sc2ncccc2C(=O)Nc2ccc(N(O)O)cc2)cc1`, the EC50 is 1.96 µM.
For `O=C(CC1CCCCC1)c1c(O)c2ccccc2oc1=O`, the 50% effective concentration (EC50) is 5.68 µM.
Turning to `CC(=O)Nc1ccc(Sc2ncccc2C(=O)Nc2cc(Cl)cc(Cl)c2)cn1`, the EC50 is > 20 µM (inactive).
`CCOc1ccc(N(CC(=O)N2CCOCC2)S(=O)(=O)c2ccccc2)cc1`: the EC50 was > 20 µM (inactive).
Turning to `CCOc1ccccc1N(CC(=O)N1CCOCC1)S(=O)(=O)c1ccc(Br)cc1`, the half-maximal effective concentration (EC50) was 1.5 µM.
On to `CCOC(=O)N1CCN(C(=O)c2c[nH]c3ccc(S(=O)(=O)N(C)c4cccc(C)c4)cc3c2=O)CC1`, for which the 50% effective concentration (EC50) is 2.51 µM.
Under `CCOc1ccccc1N(CC(=O)N1CCOCC1)S(=O)(=O)c1ccc(SC)cc1` stands 1.47 µM.
For `CCOC(=O)c1cc2ccccc2n1CCN(CC)CC`, the EC50 was > 20 µM (inactive).
Regarding `CCOc1ccccc1N(CC(=O)N1CCOCC1)S(=O)(=O)c1ccc(Br)cc1OC(F)(F)F`, the EC50 was 7.02 µM.
`CC(=O)Nc1ccc(Sc2ncccc2C(=O)Nc2ccccc2Br)cc1`: the EC50 is > 20 µM (inactive).
For `CC1(C)C(=O)OC(c2cccn2-c2ccc([N+](=O)[O-])cc2)C2(CCCCC2)C1=O` (centres undefined), the EC50 is > 20 µM (inactive).
With `CC(=O)Nc1cccc(OC(=O)c2ccoc2C)c1`, the EC50 was 9.4 µM.
For the molecule `Cc1ccc2oc(=O)c(/C=C(\O)c3sc(C)nc3C)nc2c1`, the EC50 was > 20 µM (inactive).
As to `N#Cc1c(-c2ccccc2)cc(-c2ccccc2)nc1SCC(=O)NCC(=O)O`, the EC50 was > 20 µM (inactive).
Under `O=C(CCn1c2c(c3ccccc31)CCCC2)NNC(=O)c1ccccc1C(=O)O` stands > 20 µM (inactive).
For the molecule `CCOc1ccccc1N(CC(=O)N1CCOCC1)S(=O)(=O)c1cccc(Br)c1`, the concentration giving a half-maximal response (EC50) was 1.45 µM.
With `O=C1Nc2ccccc2N(O)N1c1cc(-c2cccc(Cl)c2)no1`, the EC50 is > 20 µM (inactive).
Take `CSCCC(NC(=O)c1ccco1)C(=O)N1CC=C(c2ccccc2)CC1` (centres undefined): the 50% effective concentration (EC50) was 13.5 µM.
Then `CCOc1ccccc1N(CC(=O)N1CCOCC1)S(=O)(=O)c1ccc(C#N)cc1`, with > 20 µM (inactive); and `COc1ccc(S(=O)(=O)N(CC(=O)N2CCOCC2)c2ccccc2OC)cc1`, with > 20 µM (inactive); and `COc1ccc(NC(=O)c2cccnc2Sc2ccc(NC(C)=O)nc2)cc1`, with > 20 µM (inactive).
Regarding `CC(=O)Nc1ccc(Sc2ccccc2C(=O)Nc2ccc(F)cc2)cn1`, the EC50 is > 20 µM (inactive).
As for `COc1ccc(CN2CCCCC2C)cc1C` (centres undefined), the EC50 is > 20 µM (inactive).
Under `CSCCC(NC(=O)c1ccco1)C(=O)OC(C)C(=O)NC(=O)NC1CCCCC1` (centres undefined) stands 1.61 µM; under `Cc1nc2c(c(=O)c3ccccc3n2C)c(=O)n1C1CCCCCC1`, > 20 µM (inactive); under `O=C(O)c1cc(Cl)ccc1-c1ccc(/C=C/c2cc(C(F)(F)F)[nH]c(=O)n2)o1`, 5.43 µM.
With `CCC1CCCCN1Cc1ccc(OC)c(C)c1` (centres undefined), the EC50 is > 20 µM (inactive).

For orientation: EC50 means the midpoint of the concentration-response curve.
